From ChEMBL document CHEMBL6078667, “Synthesis, Biological Evaluation, and Mechanistic Insights of Rubrolide Analogues as Antitumor Agents” (J Nat Prod, 2024)

How the values were obtained:
[1] = test system: U-87 MG; test: Cytotoxicity against human U-87 MG cells assessed as survival rate at 10 uM measured after 72 hrs by MTT assay relative to control; format: functional, U-87MG ATCC; conditions: read-out: Survival
[2] = test system: HCT-116; test: Cytotoxicity against human HCT-116 cells assessed as survival rate at 10 uM measured after 72 hrs by MTT assay relative to control; format: functional; conditions: read-out: Survival
[3] = test system: MCF7; test: Cytotoxicity against human MCF7 cells assessed as survival rate at 10 uM measured after 72 hrs by MTT assay relative to control; format: functional; conditions: read-out: Survival
[4] = test system: U-87 MG; test: Cytotoxicity against human U-87 MG cells assessed as inhibition of cell growth at 10 uM measured after 72 hrs by MTT assay relative to control; format: functional, U-87MG ATCC
[5] = test system: HCT-116; test: Cytotoxicity against human HCT-116 cells assessed as inhibition of cell growth at 10 uM measured after 72 hrs by MTT assay relative to control; format: functional
[6] = test system: MGC-803; test: Cytotoxicity against human MGC-803 cells assessed as inhibition of cell growth at 10 uM measured after 72 hrs by MTT assay relative to control; format: functional
[7] = test system: MCF7; test: Cytotoxicity against human MCF7 cells assessed as inhibition of cell growth at 10 uM measured after 72 hrs by MTT assay relative to control; format: functional
[8] = test system: MKN-45; test: Cytotoxicity against human MKN-45 cells assessed as inhibition of cell growth at 10 uM measured after 72 hrs by MTT assay relative to control; format: functional
[9] = test system: HeLa; test: Cytotoxicity against human HeLa cells assessed as inhibition of cell growth at 10 uM measured after 72 hrs by MTT assay relative to control; format: functional
[10] = test system: HeLa; test: Cytotoxicity against human HeLa cells assessed as inhibition of cell growth incubated for 72 hrs by MTT assay; format: functional, cell-based
[11] = test system: HCT-116; test: Cytotoxicity against human HCT-116 cells assessed as inhibition of cell growth incubated for 72 hrs by MTT assay; format: functional, cell-based; conditions: HCT-116, 72 h
[12] = test system: MGC-803; test: Cytotoxicity against human MGC-803 cells assessed as inhibition of cell growth incubated for 72 hrs by MTT assay; format: functional, cell-based; conditions: MGC-803, 72 h
[13] = test system: MCF7; test: Cytotoxicity against human MCF7 cells assessed as inhibition of cell growth incubated for 72 hrs by MTT assay; format: functional, cell-based; conditions: MCF7, 72 h
[14] = test system: U-87 MG; test: Cytotoxicity against human U-87 MG cells assessed as inhibition of cell growth incubated for 72 hrs by MTT assay; format: functional, cell-based, U-87MG ATCC
[15] = test system: MKN-45; test: Cytotoxicity against human MKN-45 cells assessed as inhibition of cell growth incubated for 72 hrs by MTT assay; format: functional, cell-based; conditions: MKN-45, 72 h
[16] = Cytotoxicity against HHL-5 cells assessed as inhibition of cell growth incubated for 72 hrs by MTT assay; format: toxicity, cell-based; conditions: human
[17] = test system: K562; test: Antitumor activity against human K562 cells; format: functional, cell-based
[18] = test system: HT-29; test: Antitumor activity against human HT-29 cells; format: functional, cell-based
[19] = test system: P388; test: Antitumor activity against mouse P388 cells; format: functional, cell-based
[20] = test system: A549; test: Antitumor activity against human A549 cells; format: functional, cell-based

## Cc1ccc(/C=C2\OC(=O)C=C2c2ccccc2)cc1
[1]
  viability at 10 µM: 101%
[2]
  viability at 10 µM: 104%
[3]
  viability at 10 µM: 87.4%

## COc1ccc(C2=CC(=O)O/C2=C\c2ccc(N(C)C)cc2)cc1
[1]
  viability at 10 µM: 101%
[2]
  viability at 10 µM: 87.2%
[3]
  viability at 10 µM: 92.2%

## COc1ccc(C2=CC(=O)O/C2=C\c2ccc(C)cc2)cc1
[1]
  viability at 10 µM: 94.1%
[2]
  viability at 10 µM: 87.3%
[3]
  viability at 10 µM: 101%

## O=C1C=C(c2ccccc2)/C(=C/c2ccc(C(=O)O)cc2)O1
[1]
  viability at 10 µM: 96.5%
[2]
  viability at 10 µM: 105%
[3]
  viability at 10 µM: 87.3%

## COc1ccc(/C=C2\OC(=O)C=C2c2ccc(OC)cc2)cc1
[1]
  viability at 10 µM: 39.1%
[2]
  viability at 10 µM: 26.5%
[3]
  viability at 10 µM: 25.9%
[4]
  inhibition at 10 µM: > 50%
[5]
  inhibition at 10 µM: > 50%
[6]
  inhibition at 10 µM: > 50%
[7]
  inhibition at 10 µM: > 50%
[8]
  inhibition at 10 µM: > 50%
[9]
  inhibition at 10 µM: > 50%
[10]
  IC50: 2200 nM
[11]
  IC50: 3700 nM
[12]
  IC50: 6200 nM
[13]
  IC50: 4300 nM
[14]
  IC50: 11900 nM
[15]
  IC50: 5200 nM
[16]
  IC50 at 72 h: 3900 nM

## O=C1C=C(c2ccccc2)/C(=C/c2ccc(O)cc2)O1
[1]
  viability at 10 µM: 92.4%
[2]
  viability at 10 µM: 87.7%
[3]
  viability at 10 µM: 87.1%

## CC(C)=CCc1cc(/C=C2\OC(=O)C=C2c2ccc(O)cc2)ccc1O
[17]
  IC50: 12800 nM

## CC1(C)CCc2cc(/C=C3\OC(=O)C=C3c3ccc(O)cc3)ccc2O1
[17]
  IC50: 10100 nM

## COc1ccc(C2=CC(=O)O/C2=C\c2ccc(O)c(O)c2)cc1
[1]
  viability at 10 µM: 51.9%
[2]
  viability at 10 µM: 31.7%
[3]
  viability at 10 µM: 26.1%
[4]
  inhibition at 10 µM: > 50%
[5]
  inhibition at 10 µM: > 50%
[6]
  inhibition at 10 µM: > 50%
[7]
  inhibition at 10 µM: > 50%
[8]
  inhibition at 10 µM: > 50%
[9]
  inhibition at 10 µM: > 50%
[10]
  IC50: 1300 nM
[11]
  IC50: 3400 nM
[12]
  IC50: 8800 nM
[13]
  IC50: 2500 nM
[14]
  IC50: 23800 nM
[15]
  IC50: 2800 nM
[16]
  IC50 at 72 h: 11300 nM

## COc1cccc2c1C(=O)c1c(O)c3c(c(O)c1C2=O)C[C@@](O)(C(=O)CO)C[C@@H]3O[C@H]1C[C@H](N)[C@H](O)[C@H](C)O1 [DOXORUBICIN]
[1]
  viability at 10 µM: 20.3%
[2]
  viability at 10 µM: 12.2%
[3]
  viability at 10 µM: 5.8%
[10]
  IC50: 200 nM
[11]
  IC50: 200 nM
[12]
  IC50: 300 nM
[14]
  IC50: 300 nM
[15]
  IC50: 200 nM
[16]
  IC50 at 72 h: 7200 nM

## COc1ccc(C2=CC(=O)O/C2=C\c2ccc3[nH]ccc3c2)cc1
[1]
  viability at 10 µM: 39.5%
[2]
  viability at 10 µM: 23.9%
[3]
  viability at 10 µM: 25.8%
[4]
  inhibition at 10 µM: > 50%
[5]
  inhibition at 10 µM: > 50%
[6]
  inhibition at 10 µM: > 50%
[7]
  inhibition at 10 µM: > 50%
[8]
  inhibition at 10 µM: > 50%
[9]
  inhibition at 10 µM: > 50%
[10]
  IC50: 200 nM
[11]
  IC50: 300 nM
[12]
  IC50: 900 nM
[13]
  IC50: 1300 nM
[14]
  IC50: 7800 nM
[15]
  IC50: 200 nM
[16]
  IC50 at 72 h: 1300 nM

## COc1ccc(C2=CC(=O)O/C2=C\c2ccc(Br)cc2)cc1
[1]
  viability at 10 µM: 103%
[2]
  viability at 10 µM: 107%
[3]
  viability at 10 µM: 107%

## COc1ccc(/C=C2\OC(=O)C=C2c2ccccc2)cc1
[1]
  viability at 10 µM: 91.2%
[2]
  viability at 10 µM: 113%
[3]
  viability at 10 µM: 82.9%

## COc1cc(/C=C2\OC(=O)C=C2c2ccccc2)ccc1O
[1]
  viability at 10 µM: 99.8%
[2]
  viability at 10 µM: 137%
[3]
  viability at 10 µM: 102%

## O=C1O/C(=C\c2ccc(O)c(Br)c2)C(c2ccc(O)c(Br)c2)=C1Cl
[18]
  IC50: 2600 nM

## COc1ccc(C2=CC(=O)O/C2=C\c2ccc(NC(C)=O)cc2)cc1
[1]
  viability at 10 µM: 39.2%
[2]
  viability at 10 µM: 32.5%
[3]
  viability at 10 µM: 30.4%
[4]
  inhibition at 10 µM: > 50%
[5]
  inhibition at 10 µM: > 50%
[6]
  inhibition at 10 µM: > 50%
[7]
  inhibition at 10 µM: > 50%
[8]
  inhibition at 10 µM: > 50%
[9]
  inhibition at 10 µM: > 50%
[10]
  IC50: 700 nM
[11]
  IC50: 2200 nM
[12]
  IC50: 3000 nM
[13]
  IC50: 6100 nM
[14]
  IC50: 2500 nM
[15]
  IC50: 1000 nM
[16]
  IC50 at 72 h: 5500 nM

## O=C1O/C(=C\c2ccc(O)c(Br)c2)C(c2ccc(O)cc2)=C1Cl
[18]
  IC50: 3100 nM
[19]
  IC50: 3100 nM
[20]
  IC50: 3100 nM

## O=C1O/C(=C\c2cc(Br)c(O)c(Br)c2)C(c2cc(Br)c(O)c(Br)c2)=C1Cl
[18]
  IC50: 8000 nM
[19]
  IC50: 8000 nM
[20]
  IC50: 8000 nM

## CC(=O)Nc1ccc(/C=C2\OC(=O)C=C2c2ccccc2)cc1
[1]
  viability at 10 µM: 90.3%
[2]
  viability at 10 µM: 87.2%
[3]
  viability at 10 µM: 92.2%

## COc1ccc(C2=CC(=O)O/C2=C\c2ccc(C(C)(C)C)cc2)cc1
[1]
  viability at 10 µM: 109%
[2]
  viability at 10 µM: 98.9%
[3]
  viability at 10 µM: 60.2%

## COc1ccc(C2=CC(=O)O/C2=C\c2ccc(C(=O)O)c(O)c2)cc1
[1]
  viability at 10 µM: 106%
[2]
  viability at 10 µM: 62.8%
[3]
  viability at 10 µM: 40.7%

## COc1ccc(C2=CC(=O)O/C2=C\c2ccc(O)c(OC)c2)cc1
[1]
  viability at 10 µM: 37.8%
[2]
  viability at 10 µM: 24.1%
[3]
  viability at 10 µM: 25.2%
[4]
  inhibition at 10 µM: > 50%
[5]
  inhibition at 10 µM: > 50%
[6]
  inhibition at 10 µM: > 50%
[7]
  inhibition at 10 µM: > 50%
[8]
  inhibition at 10 µM: > 50%
[9]
  inhibition at 10 µM: > 50%
[10]
  IC50: 600 nM
[11]
  IC50: 400 nM
[12]
  IC50: 5400 nM
[13]
  IC50: 100 nM
[14]
  IC50: 4500 nM
[15]
  IC50: 300 nM
[16]
  IC50 at 72 h: 1900 nM

## O=C1C=C(c2ccccc2)/C(=C/c2ccc3[nH]ccc3c2)O1
[1]
  viability at 10 µM: 103%
[2]
  viability at 10 µM: 98.9%
[3]
  viability at 10 µM: 60.2%

## COc1ccc(C2=CC(=O)O/C2=C\c2ccccc2)cc1
[1]
  viability at 10 µM: 52%
[2]
  viability at 10 µM: 32.5%
[3]
  viability at 10 µM: 29.7%
[4]
  inhibition at 10 µM: > 50%
[5]
  inhibition at 10 µM: > 50%
[6]
  inhibition at 10 µM: > 50%
[7]
  inhibition at 10 µM: > 50%
[8]
  inhibition at 10 µM: > 50%
[9]
  inhibition at 10 µM: > 50%
[10]
  IC50: 1800 nM
[11]
  IC50: 1900 nM
[12]
  IC50: 5000 nM
[13]
  IC50: 1200 nM
[14]
  IC50: 13700 nM
[15]
  IC50: 1000 nM
[16]
  IC50 at 72 h: 1600 nM

## COc1ccc(C2=CC(=O)O/C2=C\c2ccc3ccccc3c2)cc1
[1]
  viability at 10 µM: 106%
[2]
  viability at 10 µM: 98.3%
[3]
  viability at 10 µM: 83.8%

## COc1ccc(C2=CC(=O)O/C2=C\c2ccc(C(C)C)cc2)cc1
[1]
  viability at 10 µM: 97.4%
[2]
  viability at 10 µM: 85.9%
[3]
  viability at 10 µM: 102%
